From article PMC3557921 (Journal of Medicinal Chemistry, 2012) come the findings set out here.

The experiment has as its target T1, β-catenin (armadillo-repeat region of human β-catenin) (Homo sapiens, UniProt P35222).
T1 sequence (P35222 134-671 limits assumed): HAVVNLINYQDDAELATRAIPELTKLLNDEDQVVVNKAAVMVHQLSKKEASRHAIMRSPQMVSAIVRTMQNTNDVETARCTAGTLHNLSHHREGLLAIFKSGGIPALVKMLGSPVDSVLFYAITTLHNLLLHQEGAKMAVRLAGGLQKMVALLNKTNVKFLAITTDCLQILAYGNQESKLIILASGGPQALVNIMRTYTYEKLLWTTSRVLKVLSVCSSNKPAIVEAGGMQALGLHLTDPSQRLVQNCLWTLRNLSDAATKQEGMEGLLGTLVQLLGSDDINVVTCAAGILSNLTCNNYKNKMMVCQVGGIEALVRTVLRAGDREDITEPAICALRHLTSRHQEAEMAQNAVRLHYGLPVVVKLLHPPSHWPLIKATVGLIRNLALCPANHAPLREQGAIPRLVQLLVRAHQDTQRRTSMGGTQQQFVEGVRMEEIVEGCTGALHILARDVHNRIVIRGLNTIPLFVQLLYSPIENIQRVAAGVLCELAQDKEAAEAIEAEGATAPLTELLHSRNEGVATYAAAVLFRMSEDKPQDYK
The experiment is described as follows: 1D 1H STD-NMR. In kind it is binding. To be noted: 30 μM protein, 1 mM ligand; 100 mM Tris, 150 mM NaCl, 2 mM DTT, pH 7.4, 25 °C.

For the compound `O=C1OC2(c3ccccc31)c1cc(Br)c(O)c(Br)c1Oc1c2cc(Br)c(O)c1Br` [eosin Y], the “1D 1H STD-NMR” value is “predicted ligands fluorescein and eosin Y bind to the protein”.
